Results reported in patent publication US8952024B2, “Herbicidal pyrimidone derivatives” (E I du Pont de Nemours and Company, priority 2009, dated 2015).

Tests used:
Type in all cases: in vivo
[1] = test system: wheat (Triticum aestivum); assay: Test B pre-/postemergence plant response
Source text: (§1) Seeds of plant species selected from blackgrass (Alopecurus myosuroides), downy bromegrass (Bromus tectorum), green foxtail (Setaria viridis), Italian ryegrass (Lolium multiflorum), wheat (Triticum aestivum), wild oat (Avena fatua), deadnettle (henbit deadnettle, Lamium amplexicaule), galium (catchweed bedstraw, Galium aparine), bermudagrass (Cynodon dactylon), Surinam grass (Brachiaria decumbens), cocklebur (Xanthium strumarium), corn (Zea mays), large crabgrass (Digitaria sanguinalis), woolly cupgrass (Eriochloa villosa), giant foxtail (Setaria faberii), goosegrass (Eleusine indica), johnsongrass (Sorghum halepense), kochia (Kochia scoparia), lambsquarters (Chenopodium album), morningglory (Ipomoea coccinea), nightshade (eastern black nightshade, Solanum ptycanthum), yellow nutsedge (Cyperus esculentus), pigweed (Amaranthus retroflexus), ragweed (common ragweed, Ambrosia elatior), Russian thistle (Salsola kali), soybean (Glycine max), sunflower (common oilseed sunflower, Helianthus annuus) and velvetleaf (Abutilon theophrasti) were planted into a blend of loam soil and sand and treated preemergence with test compounds formulated in a non-phytotoxic solvent mixture which included a surfactant.
(§2) At the same time, plants selected from these crop and weed species and also winter barley (Hordeum vulgare), canarygrass (Phalaris minor), chickweed (Stellaria media) and windgrass (Apera spica-venti) were planted in pots containing Redi-Earth® planting medium (Scotts Company, 14111 Scottslawn Road, Marysville, Ohio 43041) comprising spaghnum peat moss, vermiculite, wetting agent and starter nutrients and treated with postemergence applications of some of the test chemicals formulated in the same manner. Plants ranged in height from 2 to 18 cm (1- to 4-leaf stage) for postemergence treatments.
(§3) Treated plants and controls were maintained in a greenhouse for 13 to 15 days, after which time all treated plants were visually evaluated and compared to controls. Plant response ratings, summarized in Table B, are based on a scale of 0 to 100 where 0 is no effect and 100 is complete control. A dash (-) response means no test result.

[2] = test system: cocklebur (Xanthium strumarium); assay: Test B pre-/postemergence plant response
Source text: as §1, §2, §3

[3] = test system: bermudagrass (Cynodon dactylon); assay: Test B pre-/postemergence plant response
Source text: as §1, §2, §3

[4] = test system: pigweed (Amaranthus retroflexus); assay: Test A pre-/postemergence plant response
Procedure, shortened: (§4)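 Formulated test chemicals (non-phytotoxic solvent, surfactant) were sprayed onto soil right after planting and simultaneously onto young plants at one to two leaves, 2 to 10 cm tall. Plants stayed in the greenhouse about ten days; injury was then visually scored against untreated controls, from 0 (no effect) to 100 (complete control).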

[5] = test system: wheat (Triticum aestivum); assay: Test A pre-/postemergence plant response
Procedure, shortened: as §4

[6] = test system: giant foxtail (Setaria faberii); assay: Test A pre-/postemergence plant response
Procedure, shortened: as §4

corn (Zea mays) = assay: Test A pre-/postemergence plant response
Procedure, shortened: as §4

[7] = test system: large crabgrass (Digitaria sanguinalis); assay: Test A pre-/postemergence plant response
Procedure, shortened: as §4

[8] = test system: velvetleaf (Abutilon theophrasti); assay: Test A pre-/postemergence plant response
Procedure, shortened: as §4

[9] = test system: morningglory (Ipomoea spp.); assay: Test A pre-/postemergence plant response
Procedure, shortened: as §4

[10] = test system: barnyardgrass (Echinochloa crus-galli); assay: Test A pre-/postemergence plant response
Procedure, shortened: as §4

[11] = 16 g ai/ha, Postemergence, 0 to 100 scale
[12] = Postemergence, 31 g ai/ha, 0 to 100 scale (0 no effect, 100 complete control)
[13] = Postemergence, 125 g ai/ha, scale 0 to 100 (0 no effect, 100 complete control)
[14] = Postemergence, 125 g ai/ha, 0 to 100 scale where 0 is no effect and 100 is complete control
[15] = Postemergence, 500 g ai/ha, visual injury, 0 to 100 scale (0 no effect, 100 complete control), approx. ten days
[16] = Preemergence, 125 g ai/ha, 0 to 100 scale, 0 = no effect, 100 = complete control
[17] = Preemergence, 500 g ai/ha, 0 to 100 scale, 0 = no effect, 100 = complete control
[18] = 250 g ai/ha, Preemergence, 0 to 100 scale
[19] = Postemergence, 62 g ai/ha, scale 0 (no effect) to 100 (complete control), 13 to 15 days
[20] = Postemergence, 125 g ai/ha, visual rating after 13 to 15 days, scale 0 (no effect) to 100 (complete control)
[21] = Preemergence, 31 g ai/ha, scale 0 to 100 (0 no effect, 100 complete control)
[22] = Preemergence, 125 g ai/ha, 0 to 100 scale
[23] = Postemergence, 31 g ai/ha, scale 0 to 100 (0 no effect, 100 complete control)
[24] = Postemergence, 250 g ai/ha, scale 0 to 100
[25] = Postemergence, 125 g ai/ha, visual injury, 0 to 100 scale (0 no effect, 100 complete control), approx. ten days
[26] = Postemergence, 500 g ai/ha, 0 to 100 scale, 0 = no effect, 100 = complete control, approx. ten days
[27] = Preemergence, 500 g ai/ha, visual injury, 0 to 100 scale (0 no effect, 100 complete control), approx. ten days

O=C1CCCC(O)=C1C(=O)c1cnc(-c2ccccc2)n(C2CC[S+]([O-])CC2)c1=O (mixture of isomers) [Compound 169, 5-[(2-hydroxy-6-oxo-1-cyclohexen-1-yl)carbonyl]-2-phenyl-3-(trans/cis-tetrahydro-1-oxido-2H-thiopyran-4-yl)-4(3H)-pyrimidinone]
Plant response rating, Wheat [1, 11]: 0 | Plant response rating, Wheat [1, 12]: 0 | Plant response rating, Wheat [1, 13]: 5 | Plant response rating, Cocklebur [2, 11]: 100 | Plant response rating, Cocklebur [2, 12]: 100 | Plant response rating, Cocklebur [2, 13]: 100 | Plant response rating, Bermudagrass [3, 11]: 70 | Bermudagrass plant response rating (0 to 100 scale) ([3]; 62 g ai/ha, postemergence, 0 is no effect, 100 is complete control, 13 to 15 days): 75 | Plant response rating, Bermudagrass [3, 12]: 70 | Plant response rating, Bermudagrass [3, 13]: 100 | Plant response rating, Pigweed [4, 14]: 100 | Pigweed plant response rating [4, 15]: 100 | Plant response rating, Pigweed [4, 16]: 0 | Plant response rating, Pigweed [4, 17]: 50 | Plant response rating, Wheat [5, 14]: 20 | Wheat plant response rating [5, 15]: 20 | Plant response rating, Wheat [5, 16]: 0 | Plant response rating, Wheat [5, 17]: 0 | Plant response rating, Foxtail, Giant [6, 14]: 80 | Foxtail, Giant plant response rating [6, 15]: 100 | Plant response rating, Foxtail, Giant [6, 16]: 40 | Plant response rating, Foxtail, Giant [6, 17]: 50 | Plant response rating, Corn (corn (Zea mays); [14]): 0 | Corn plant response rating (corn (Zea mays); [15]): 30 | Plant response rating, Corn (corn (Zea mays); [16]): 0 | Plant response rating, Corn (corn (Zea mays); [17]): 20 | Plant response rating, Crabgrass, Large [7, 14]: 90 | Crabgrass, Large plant response rating [7, 15]: 100 | Plant response rating, Crabgrass, Large [7, 16]: 40 | Plant response rating, Crabgrass, Large [7, 17]: 40 | Plant response rating, Velvetleaf [8, 14]: 100 | Velvetleaf plant response rating [8, 15]: 100 | Plant response rating, Velvetleaf [8, 16]: 20 | Plant response rating, Velvetleaf [8, 17]: 50 | Plant response rating, Morningglory [9, 14]: 100 | Morningglory plant response rating [9, 15]: 100 | Plant response rating, Morningglory [9, 16]: 0 | Plant response rating, Morningglory [9, 17]: 20 | Plant response rating, Barnyardgrass [10, 14]: 90 | Barnyardgrass plant response rating [10, 15]: 100 | Plant response rating, Barnyardgrass [10, 16]: 0 | Plant response rating, Barnyardgrass [10, 17]: 50

Cc1ccc(-n2c(-c3cccc(Cl)c3)ncc(C(=O)C3=C(O)CCCC3=O)c2=O)cc1 [Compound 39]
Plant response rating, Wheat [1, 18]: 0 | Plant response rating, Wheat [1, 19]: 5 | Plant response rating, Wheat [1, 20]: 5 | Plant response rating, Wheat [1, 21]: 0 | Wheat plant response rating [1, 22]: 0 | Plant response rating, Cocklebur [2, 18]: 45 | Plant response rating, Cocklebur [2, 23]: 75 | Plant response rating, Cocklebur [2, 19]: 75 | Plant response rating, Cocklebur [2, 20]: 95 | Cocklebur plant response rating [2, 24]: 98 | Plant response rating, Cocklebur [2, 21]: 0 | Plant response rating, Bermudagrass [3, 18]: 100 | Plant response rating, Bermudagrass [3, 23]: 50 | Plant response rating, Bermudagrass [3, 19]: 60 | Plant response rating, Bermudagrass [3, 20]: 85 | Bermudagrass plant response rating [3, 24]: 100 | Plant response rating, Bermudagrass [3, 21]: 85 | Plant response rating, Bermudagrass ([3]; Preemergence, 62 g ai/ha, scale 0 to 100, 0 no effect, 100 complete control): 100 | Bermudagrass plant response rating [3, 22]: 100 | Pigweed plant response rating [4, 25]: 100 | Plant response rating, Pigweed [4, 26]: 100 | Plant response rating, Pigweed [4, 16]: 60 | Plant response rating, Pigweed [4, 27]: 90 | Wheat plant response rating [5, 25]: 0 | Plant response rating, Wheat [5, 26]: 0 | Plant response rating, Wheat [5, 16]: 0 | Plant response rating, Wheat [5, 27]: 0 | Foxtail, Giant plant response rating [6, 25]: 80 | Plant response rating, Foxtail, Giant [6, 26]: 90 | Plant response rating, Foxtail, Giant [6, 16]: 50 | Plant response rating, Foxtail, Giant [6, 27]: 90 | Corn plant response rating (corn (Zea mays); [25]): 0 | Plant response rating, Corn (corn (Zea mays); [26]): 40 | Plant response rating, Corn (corn (Zea mays); [16]): 0 | Plant response rating, Corn (corn (Zea mays); [27]): 0 | Crabgrass, Large plant response rating [7, 25]: 80 | Plant response rating, Crabgrass, Large [7, 26]: 90 | Plant response rating, Crabgrass, Large [7, 16]: 60 | Plant response rating, Crabgrass, Large [7, 27]: 90 | Velvetleaf plant response rating [8, 25]: 100 | Plant response rating, Velvetleaf [8, 26]: 100 | Plant response rating, Velvetleaf [8, 16]: 70 | Plant response rating, Velvetleaf [8, 27]: 90 | Morningglory plant response rating [9, 25]: 80 | Plant response rating, Morningglory [9, 26]: 90 | Plant response rating, Morningglory [9, 16]: 40 | Plant response rating, Morningglory [9, 27]: 60 | Barnyardgrass plant response rating [10, 25]: 60 | Plant response rating, Barnyardgrass [10, 26]: 90 | Plant response rating, Barnyardgrass [10, 16]: 10 | Plant response rating, Barnyardgrass [10, 27]: 90
